# Where a SMILES comes first, the peptide text is derived from it. [ ]: non-standard residue; d: D form. The star is where a group is joined. Stearoyl = CCCCCCCCCCCCCCCCCC(=O)*
# Key:
# [1] = biological target: T1, trypsin (Bos taurus, UniProt P00760); assay: Degradation mediated by trypsin (HPLC); format: in vitro ADME; details: trypsin (119 ng/μL) in Tris-HCl buffer, pH 8.5, 119 μg/ml trypsin, peptide 0.79 mM, 37 °C, read-out: peptide intact after incubation with trypsin
# T1 construct: purchased Roche Corp (Indianapolis, USA)
# T1 sequence (P00760 24-246): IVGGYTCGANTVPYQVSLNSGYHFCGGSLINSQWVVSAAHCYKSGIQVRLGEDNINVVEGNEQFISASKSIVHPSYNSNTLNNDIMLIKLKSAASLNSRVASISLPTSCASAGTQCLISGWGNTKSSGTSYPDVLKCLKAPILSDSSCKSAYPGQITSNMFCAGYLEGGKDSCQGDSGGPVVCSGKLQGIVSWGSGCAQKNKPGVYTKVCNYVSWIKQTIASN
# Excerpt: The degradation of peptides mediated by trypsin can be effectively monitored by HPLC analysis. […] The detector wavelength was set at 214 nm.
# [2] = biological target: T2, human serum albumin (HSA) (Homo sapiens, UniProt P02768); assay: Surface plasmon resonance on surface-immobilized HSA; format: binding; details: HBS-EP buffer, 0.1-10 μM peptide
# T2 construct: purchased Calbiochem (Merck, Germany)
# Protocol: Briefly, HSA was first immobilized on CM5 sensor chips using the standard amine coupling protocol provided by manufacturer. The carboxymethylated dextran surface was then activated by injecting 45 μL of the solution containing 0.2 M N-ethyl-N’-(3-dimethylaminopropyl) carbodiimide hydrochloride and 0.05 M N-hydroxy succinimide. Subsequently, HSA and the control antibody were dissolved in 10 mM Na-citrate solution (pH 5.0, 50 μg/ml) and then injected until the desired amount of HSA and control antibody were coupled (8000 RUs). At this point, a buffer with higher ionic strength (HBS-EP, 0.01 M Hepes, pH = 7.4, 0.15 M NaCl, 3 mM EDTA, 0.005% surfactant) was used to wash off the ligands bound non-covalently. Finally, the 1 M ethanolamine hydrochloride solution (pH 8.5) was employed to cap the free NHS esters present on the sensor surface. […] All samples were injected onto the surface of HSA and control antibody over 3 minutes at a flow rate of 30 μL/min, followed by a dissociation period of 15 min. The 2.5 μM sample was subject to this protocol twice. Sensorgrams were obtained for each peptide concentration, respectively.
# [3] = test system: rat blood; assay: Coagulation time (CT) of rat blood; format: in vivo
# Protocol: CT was obtained using the modified Dale’s method. […] Thirty min after administration, blood samples were taken from the rat vein under eye ball with glass capillaries (20 μL), which were broken after 10 s, followed by a coagulation check. The time between blood extraction and blood coagulation in each capillary was recorded as coagulation time (CT).
# [4] = test system: rat carotid artery thrombosis; assay: Rat carotid artery thrombosis (occlusion time); format: in vivo; details: for occlusion time (OT): 30 min after administration
# Excerpt: The carotid artery thrombosis in rats was induced by the method developed by Hladovec with minor modifications. At first, male SD Rats (180 ~ 220 g) were randomly divided into 5 groups (n = 8) and anesthetized by i.p. 20% ethyl urethane (1 g/kg). The right carotid artery was first carefully separated to give a 1.5 cm long open access, and then the stimulating electrode and the temperature electrode of BT 87–3 thrombosis radiometer (Baotou medical college, China) were linked to both ends of the artery. […] The time from the initiation of electric stimulation to the sudden drop of carotid temperature was recorded as occlusion time (OT), or thrombus formation time.
# T2 sequence (P02768 25-609): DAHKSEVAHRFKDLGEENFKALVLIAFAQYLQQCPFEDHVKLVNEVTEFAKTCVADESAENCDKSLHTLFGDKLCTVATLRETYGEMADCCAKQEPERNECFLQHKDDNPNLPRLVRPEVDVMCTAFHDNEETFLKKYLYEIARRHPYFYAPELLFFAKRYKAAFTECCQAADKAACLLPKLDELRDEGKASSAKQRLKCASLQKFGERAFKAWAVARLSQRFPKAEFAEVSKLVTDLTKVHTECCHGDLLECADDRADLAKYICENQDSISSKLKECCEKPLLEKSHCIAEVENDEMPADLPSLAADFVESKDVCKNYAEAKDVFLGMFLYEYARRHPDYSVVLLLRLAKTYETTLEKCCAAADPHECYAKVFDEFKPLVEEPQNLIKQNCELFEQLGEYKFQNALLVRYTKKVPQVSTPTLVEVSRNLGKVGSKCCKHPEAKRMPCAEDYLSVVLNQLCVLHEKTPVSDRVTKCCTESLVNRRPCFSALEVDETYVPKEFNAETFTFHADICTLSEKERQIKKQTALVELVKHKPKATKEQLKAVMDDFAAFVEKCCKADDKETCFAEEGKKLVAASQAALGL
smiles,measurement,setting,value
CCCCCCCCCCCCCCCCCC(=O)NCCCC[C@H](NC(=O)CNC(=O)[C@@H]1CCCN1C(=O)[C@H](CCCNC(=N)N)NC(=O)[C@@H]1CCCN1C(=O)[C@H](N)Cc1ccccc1)C(=O)NCC(=O)NCC(=O)N[C@@H](CCC(N)=O)C(=O)NCC(=O)N[C@@H](CC(=O)O)C(=O)N[C@@H](Cc1ccccc1)C(=O)N[C@@H](CCC(=O)O)C(=O)N1CCC[C@H]1C(=O)N[C@H](C(=O)N1CCC[C@H]1C(=O)N[C@@H](CCC(=O)O)C(=O)N[C@@H](CC(=O)O)C(=O)N[C@@H](C)C(=O)N[C@@H](Cc1ccc(O)cc1)C(=O)N[C@@H](CC(=O)O)C(=O)N[C@@H](CCC(=O)O)C(N)=O)[C@@H](C)CC [Peptide S2] (H-[dF]PRPGK(Stearoyl)GGQGDFEPIPEDAYDE-NH2; N-terminus assumed),"remaining at 3 h, 0.79 mM",[1]; 3 h,39%
same,"remaining at 5 h, 0.79 mM",[1]; 5 h,23%
same,binding to surface-immobilized HSA (SPR),[2],weakly bind to HSA
same,anticoagulant activity (CT) compared with references,[3]; 1.0 mg/kg peptide S2,superior to the 8 mg/kg hirulog-1 and 200 IU/kg heparin
same,coagulation time (CT) of rat blood,[3]; 30 min after administration,significantly prolong
same,occlusion time (OT),[4]; 0.5 mg/kg,979.88 ± 150.61 s
same,occlusion time (OT),[4]; 1.0 mg/kg,1063.75 ± 61.12 s
same,duration of antithrombotic activity (OT),"[4]; 1.0 mg/kg, OT at different time points",more than 8 h
same,occlusion time (OT),[4]; 2.0 mg/kg,1207.25 ± 137.82

# From article PMC4585835 (Scientific Reports, 2015)
